Experiments:
Gelatinase (MMP-2) = molecular target: T1, Gelatinase (MMP-2) (Homo sapiens, UniProt P08253); assay: Gelatinase (MMP-2) inhibitory activity, fluorogenic peptide substrate cleavage; assay type: biochemical; conditions: read-out: MMP02 IC50
T1 sequence (P08253 110-660): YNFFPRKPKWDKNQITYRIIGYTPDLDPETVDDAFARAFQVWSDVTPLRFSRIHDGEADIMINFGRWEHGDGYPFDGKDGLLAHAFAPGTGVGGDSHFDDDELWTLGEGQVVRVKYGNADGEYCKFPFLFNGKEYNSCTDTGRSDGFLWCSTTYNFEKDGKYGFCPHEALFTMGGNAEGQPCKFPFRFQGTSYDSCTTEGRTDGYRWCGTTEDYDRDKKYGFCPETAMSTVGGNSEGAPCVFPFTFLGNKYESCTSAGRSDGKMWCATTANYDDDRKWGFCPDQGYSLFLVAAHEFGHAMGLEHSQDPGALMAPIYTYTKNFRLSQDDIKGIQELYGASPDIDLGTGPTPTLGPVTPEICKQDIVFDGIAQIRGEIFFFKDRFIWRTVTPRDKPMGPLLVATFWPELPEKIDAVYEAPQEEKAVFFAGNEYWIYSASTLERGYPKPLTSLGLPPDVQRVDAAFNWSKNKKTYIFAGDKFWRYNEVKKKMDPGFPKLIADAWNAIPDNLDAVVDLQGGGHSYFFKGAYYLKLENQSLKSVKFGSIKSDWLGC
Outline: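 Fluorogenic assay with MCA-Lys-Pro-Leu-Gly-Leu-Dpa-Ala-Arg-NH2 at 5 μM in Tris-Cl pH 7.5 buffer with ZnCl2, CaCl2, Brij-35 and 1.0% DMSO, 20-25 °C. Enzyme preincubated with inhibitor 60 min; fluorescence (ex 325/em 405 nm) read 60 min after substrate addition. IC50 relative to uninhibited control.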

Collagenase-3 (MMP-13) = Collagenase-3 (MMP-13) (Homo sapiens, UniProt P45452); assay: Collagenase-3 (MMP-13) inhibitory activity, fluorogenic peptide substrate cleavage; assay type: biochemical; conditions: read-out: MMP13 IC50
Outline: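 Recombinant pro-MMP-13 activated with 1 mM APMA; inhibitor preincubated 60 min, then 5 μM MCA-Lys-Pro-Leu-Gly-Leu-Dpa-Ala-Arg-NH2 added in Tris-Cl pH 7.5 buffer with Zn2+, Ca2+, Brij-35, 1.0% DMSO, 20-25 °C. Fluorescence (ex 325/em 405 nm) read after 60 min; IC50 versus uninhibited control.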

| IC50 (Gelatinase (MMP-2)) [µM] | IC50 (Collagenase-3 (MMP-13)) [µM] | Compound |
| --- | --- | --- |
| 26.5 | 13.7 | NS(=O)(=O)c1cc(C(=O)c2ccc3ccccc3c2)ccc1Cl [Example 93, 2-Chloro-5-(naphthalene-2-carbonyl)benzenesulfonamide] |
| 23.5 | 22.6 | NS(=O)(=O)c1cc(C(=O)c2ccc3c(c2)CCC3)ccc1Cl [Example 94, 2-Chloro-5-(indane-5-carbonyl)-benzenesulfonamide] |
| 3.97 | 6.21 | NS(=O)(=O)c1cc(C(=O)c2cc[nH]c2)ccc1Cl [Example 95, 2-Chloro-5-(1H-pyrrole-3-carbonyl)-benzenesulfonamide] |
| 10 | 14.7 | NS(=O)(=O)c1cc(C(=O)c2cccs2)ccc1Cl [Example 96, 2-Chloro-5-(thiophene-2-carbonyl)-benzenesulfonamide] |
| 1.21 | 0.63 | NS(=O)(=O)c1cc(C(=O)c2ccc3nc[nH]c3c2)ccc1Cl [Example 97, 5-(3H-Benzoimidazole-5-carbonyl)-2-chloro-benzenesulfonamide] |
| 2.25 | 8.31 | Cc1nc2ccc(C(=O)c3ccc(Cl)c(S(N)(=O)=O)c3)cc2[nH]1 [Example 98, 2-Chloro-5-(2-methyl-3H-benzoimidazole-5-carbonyl)-benzenesulfonamide] |
| 0.27 | 0.25 | CCc1n[nH]c2cc(C(=O)c3ccc(Cl)c(S(N)(=O)=O)c3)ccc12 [Example 99, 2-Chloro-5-(3-ethyl-1H-indazole-6-carbonyl)-benzenesulfonamide] |
| 0.26 | 0.25 | Cc1n[nH]c2cc(C(=O)c3ccc(Cl)c(S(N)(=O)=O)c3)ccc12 [Example 100, 2-Chloro-5-(3-methyl-1H-indazole-6-carbonyl)benzenesulfonamide] |
| 6.35 | 3.65 | CC(C)c1n[nH]c2cc(C(=O)c3ccc(Cl)c(S(N)(=O)=O)c3)ccc12 [Example 101, 2-Chloro-5-(3-isopropyl-1H-indazole-6-carbonyl)-benzenesulfonamide] |
| 1.01 | 2.71 | NS(=O)(=O)c1cc(C(=O)c2ccc3c(c2)[nH]c2ccccc23)ccc1Cl [Example 102, 5-(9H-Carbazole-2-carbonyl)-2-chloro-benzenesulfonamide] |
| 0.85 | 0.36 | CCOC(=O)N1CCc2[nH]c3cc(C(=O)c4ccc(Cl)c(S(N)(=O)=O)c4)ccc3c2C1 [Example 103, 7-(4-Chloro-3-sulfamoyl-benzoyl)-1,3,4,5-tetrahydro-pyrido[4,3-b]indole-2-carboxylic acid ethyl ester] |
| 21.4 | 1.9 | CCOC(=O)N1CCc2[nH]c3ccc(C(=O)c4ccc(Cl)c(S(N)(=O)=O)c4)cc3c2C1 [Example 104, 8-(4-Chloro-3-sulfamoyl-benzoyl)-1,3,4,5-tetrahydro-pyrido[4,3-b]indole-2-carboxylic acid ethyl ester] |
| 8 | 9 | NS(=O)(=O)c1cc(C(=O)c2ccc3c4c([nH]c3c2)C(=O)NCC4)ccc1Cl [Example 105, 2-Chloro-5-(1-oxo-2,3,4,9-tetrahydro-1H-beta-carboline-7-carbonyl)-benzenesulfonamide] |
| > 2.7 | 0.95 | CC(C)(C)C(=O)N1CCc2c([nH]c3ccc(C(=O)c4ccc(Cl)c(S(N)(=O)=O)c4)cc23)C1 [Example 106, 2-Chloro-5-[2-(2,2-dimethyl-propionyl)-2,3,4,9-tetrahydro-1H-beta-carbolise-6-carbonyl]-benzenesulfonamide] |
| 0.027 | 0.069 | CN1C(=O)CCC2=C1Cc1cc(C(=O)c3ccc(Cl)c(S(N)(=O)=O)c3)ccc12 [Example 107, 2-Chloro-5-(1-methyl-2-oxo-2,3,4,9-tetrahydro-1H-indeno[2,1-b]pyridine-7-carbonyl)-benzenesulfonamide] |
| 2.9 | 4.11 | CCN1C(=O)CCC2=C1Cc1cc(C(=O)c3ccc(Cl)c(S(N)(=O)=O)c3)ccc12 [Example 108, 2-Chloro-5-(1-ethyl-2-oxo-2,3,4,9-tetrahydro-1H-indeno[2,1-b]pyridine-7-carbonyl)-benzenesulfonamide] |
| 21.8 | 19.9 | Cc1ccc(C)n1-c1ccc(C(=O)c2ccc(Cl)c(S(N)(=O)=O)c2)cc1F [Example 109, 2-Chloro-5-[4-(2,5-dimethyl-pyrrol-1-yl)-3-fluoro-benzoyl]-benzenesulfonamide] |

| IC50 (Gelatinase (MMP-2)) [µM] | IC50 (Collagenase-3 (MMP-13)) [µM] | Compound |
| --- | --- | --- |
| 8.94 | 3.08 | NS(=O)(=O)c1cc(C(=O)c2c[nH]c3ccccc23)ccc1Cl [Example 113, 2-Chloro-5-(1H-indole-3-carbonyl)-benzenesulfonamide] |
| 3.31 | 3.13 | Cn1ccc2cc(C(=O)c3ccc(Cl)c(S(N)(=O)=O)c3)ccc21 [Example 114, 2-Chloro-5-(1-methyl-1H-indole-5-carbonyl)-benzenesulfonamide] |
| 0.218 | 0.178 | NS(=O)(=O)c1cc(C(=O)c2ccc3cc[nH]c3c2)ccc1Cl [Example 115, 2-Chloro-5-(1H-indole-6-carbonyl)-benzenesulfonamide] |
| 26.7 | 23 | CC(C)CCn1ccc2cc(C(=O)c3ccc(Cl)c(S(N)(=O)=O)c3)ccc21 [Example 117, 2-Chloro-5-[1-(3-methyl-butyl)-1H-indole-5-carbonyl]benzenesulfonamide] |
| 2 | 1.03 | NS(=O)(=O)c1cc(C(=O)c2ccc3c(-c4ccccc4)c[nH]c3c2)ccc1Cl [Example 118, 2-Chloro-5-(3-phenyl-1H-indole-6-carbonyl)-benzenesulfonamide] |
| 24 | 6.04 | COc1ccc(-c2c[nH]c3cc(C(=O)c4ccc(Cl)c(S(N)(=O)=O)c4)ccc23)cc1 [Example 119, 2-Chloro-5-[3-(4-methoxy-phenyl)-1H-indole-6-carbonyl]-benzenesulfonamide] |
| 1.9 | 0.95 | NS(=O)(=O)c1cc(C(=O)c2ccc3c(-c4ccc(F)cc4)c[nH]c3c2)ccc1Cl [Example 120, 2-Chloro-5-[3-(4-fluoro-phenyl)-1H-indole-6-carbonyl]-benzenesulfonamide] |
| 3.9 | 0.59 | CC(=O)c1cccc(-c2c[nH]c3cc(C(=O)c4ccc(Cl)c(S(N)(=O)=O)c4)ccc23)c1 [Example 121, 5-[3-(3-Acetyl-phenyl)-1H-indole-6-carbonyl]-2-chloro-benzenesulfonamide] |
| 12.5 | 1.45 | CC(=O)c1ccc(-c2c[nH]c3cc(C(=O)c4ccc(Cl)c(S(N)(=O)=O)c4)ccc23)cc1 [Example 122, 5-[3-(4-Acetyl-phenyl)-1H-indole-6-carbonyl]-2-chloro-benzenesulfonamide] |
| 5.02 | 0.39 | CS(=O)(=O)c1cccc(-c2c[nH]c3cc(C(=O)c4ccc(Cl)c(S(N)(=O)=O)c4)ccc23)c1 [Example 123, 2-Chloro-5-[3-(3-methanesulfonyl-phenyl)-1H-indole-6-carbonyl]-benzenesulfonamide] |
| 19.7 | 0.54 | CS(=O)(=O)c1ccc(-c2c[nH]c3cc(C(=O)c4ccc(Cl)c(S(N)(=O)=O)c4)ccc23)cc1 [Example 124, 2-Chloro-5-[3-(4-methanesulfonyl-phenyl)-1H-indole-6-carbonyl]-benzenesulfonamide] |
| > 30 | 1.01 | CCS(=O)(=O)c1ccc(-c2c[nH]c3cc(C(=O)c4ccc(Cl)c(S(N)(=O)=O)c4)ccc23)cc1 [Example 125, 2-Chloro-5-[3-(4-ethanesulfonyl-phenyl)-1H-indole-6-carbonyl]-benzenesulfonamide] |
| 22.8 | 10 | NS(=O)(=O)c1cc(C(=O)c2ccc3c(-c4ccc(-c5ccccc5)cc4)c[nH]c3c2)ccc1Cl [Example 126, 5-(3-Biphenyl-4-yl-1H-indole-6-carbonyl)-2-chloro-benzenesulfonamide] |
| 2.95 | 1.65 | NS(=O)(=O)c1cc(C(=O)c2ccc3c(-c4ccc5[nH]ccc5c4)c[nH]c3c2)ccc1Cl [Example 129, 5-(1H,1′H-[3,5′]Biindolyl-6-carbonyl)-2-chloro-benzenesulfonamide] |
| 2.62 | 0.24 | NS(=O)(=O)c1cc(C(=O)c2ccc3c(-c4cccnc4)c[nH]c3c2)ccc1Cl [Example 130, 2-Chloro-5-(3-pyridin-3-yl-1H-indole-6-carbonyl)benzenesulfonamide] |
| 4 | 0.195 | NS(=O)(=O)c1cc(C(=O)c2ccc3c(-c4cncnc4)c[nH]c3c2)ccc1Cl [Example 131, 2-Chloro-5-(3-pyrimidin-5-yl-1H-indole-6-carbonyl)-benzenesulfonamide] |
